Test results as given in US12371454B2, “Cyclic peptide compound having Kras inhibitory action” (priority 2019, dated 2025).
Starred links: 1 amine or outer side, 2 acyl side, 3 side chain; linkers in the order of their positions; H or OH if unused. Positions of bridges follow the written chain, without caps; N, C: chain ends. Non-standard residues stand in square brackets, D forms with d. Residues, ends and D or L forms follow the SMILES beside them. *: point of attachment. hPhe(3-Cl-4-CF3) = N[C@@H](CCc1ccc(C(F)(F)F)c(Cl)c1)C(=O)O; X38 = CN([C@@H](Cc1cccc(OC(F)(F)F)c1)C(=O)[*:2])[*:1]; NMePhe(3-CF3) = CN[C@@H](Cc1cccc(C(F)(F)F)c1)C(=O)O; NMePhe(2-CF3) = CN[C@@H](Cc1ccccc1C(F)(F)F)C(=O)O; NMePhe(3-Br) = CN[C@@H](Cc1cccc(Br)c1)C(=O)O; NMePhe(2-Cl) = CN[C@@H](Cc1ccccc1Cl)C(=O)O; NMePhe(3-F) = CN[C@@H](Cc1cccc(F)c1)C(=O)O; NMePhe(2-Me) = CN[C@@H](Cc1ccccc1C)C(=O)O; NMeAla(cPent) = CN[C@@H](CC1CCCC1)C(=O)O; NMePhe(2-F) = CN[C@@H](Cc1ccccc1F)C(=O)O; NMeAla(cPr) = CN[C@@H](CC1CC1)C(=O)O; NMeCha = CN[C@@H](CC1CCCCC1)C(=O)O; NMeGly(cPr) = CN[C@H](C(=O)O)C1CC1; NMehLeu = CN[C@@H](CCC(C)C)C(=O)O; NMeChg = CN[C@H](C(=O)O)C1CCCCC1; NMeF = CN[C@@H](Cc1ccccc1)C(=O)O; NMeD = CN[C@@H](CC(=O)O)C(=O)O; NMeL = CN[C@@H](CC(C)C)C(=O)O; NMeV = CN[C@H](C(=O)O)C(C)C; d(β3hA) = C[C@@H](N)CC(=O)O; NMeA = CN[C@@H](C)C(=O)O; Piperidide = C1CCN(*)CC1; Ac5c = NC1(C(=O)O)CCCC1; Aze = O=C(O)[C@@H]1CCN1; Sar = CNCC(=O)O

Target: T1, Kras and SOS1 (biotin-tagged human Kras loaded with GDP, His-tagged human SOS1) (Homo sapiens, UniProt P01116, G12D)
T1 construct: made in house; host or cells: E. coli (stated for Kras only)
T1 sequence (P01116 1-188 isoform P01116-2 G12D): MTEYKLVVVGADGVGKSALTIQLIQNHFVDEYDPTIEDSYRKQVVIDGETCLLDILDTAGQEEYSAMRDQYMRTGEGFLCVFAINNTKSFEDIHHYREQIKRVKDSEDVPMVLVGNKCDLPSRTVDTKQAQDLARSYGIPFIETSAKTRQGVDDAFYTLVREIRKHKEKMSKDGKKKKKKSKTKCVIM
Assay: Protein-protein interaction inhibition between Kras and SOS1 (KrasGl2D-SOS PPI) using AlphaScreen
Format: binding
Settings: AlphaScreen; biotin-tagged human Kras loaded with GDP, His-tagged human SOS1; read-out: KRAS G12D-SOS PPI IC50
Procedure, shortened: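 Donor beads (nickel) hold His-SOS1; acceptor beads (streptavidin) hold biotin-Kras bound to GDP. Signal measured at 520-620 nm following 680 nm excitation.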

Compound	IC50
CC[C@H](C)[C@@H]1NC(=O)[C@H](CC(C)C)N(C)C(=O)C[C@@H](C(=O)N2CCCCC2)N(C)C(=O)[C@H](C(C)C)N(C)C(=O)C2(CCCC2)NC(=O)[C@@H]2CCCN2C(=O)[C@H](CCc2ccc(C(F)(F)F)c(Cl)c2)NC(=O)CN(C)C(=O)[C@H](CC2CCCCC2)N(C)C(=O)[C@@H]2CCN2C(=O)[C@H](C2CC2)N(C)C1=O [Compound 1553] ([NMeL]I[NMeGly(cPr)][Aze][NMeCha][Sar][hPhe(3-Cl-4-CF3)]P[Ac5c][NMeV][NMeD]-Piperidide; lactam N-11)	12 nM
CC[C@H](C)[C@@H]1NC(=O)[C@H](CC(C)C)N(C)C(=O)C[C@@H](C)NC(=O)[C@H](C(C)C)N(C)C(=O)C2(CCCC2)NC(=O)[C@@H]2CCCN2C(=O)[C@H](CCc2ccc(C(F)(F)F)c(Cl)c2)NC(=O)CN(C)C(=O)[C@H](Cc2cccc(F)c2)N(C)C(=O)CN(C)C(=O)CN(C)C1=O [Compound 1556] (cyclo([Ac5c][NMeV][d(β3hA)][NMeL]I[Sar][Sar][NMePhe(3-F)][Sar][hPhe(3-Cl-4-CF3)]P))	17 nM
CC[C@H](C)[C@@H]1NC(=O)[C@H](CC(C)C)N(C)C(=O)C[C@@H](C)NC(=O)[C@H](C(C)C)N(C)C(=O)C2(CCCC2)NC(=O)[C@@H]2CCCN2C(=O)[C@H](CCc2ccc(C(F)(F)F)c(Cl)c2)NC(=O)CN(C)C(=O)[C@H](Cc2cccc(OC(F)(F)F)c2)N(C)C(=O)CN(C)C(=O)CN(C)C1=O [Compound 1573] (cyclo([Ac5c][NMeV][d(β3hA)][NMeL]I[Sar][Sar][X38][Sar][hPhe(3-Cl-4-CF3)]P))	57 nM
CC[C@H](C)[C@@H]1NC(=O)[C@H](CC(C)C)N(C)C(=O)C[C@@H](C)NC(=O)[C@H](C(C)C)N(C)C(=O)C2(CCCC2)NC(=O)[C@@H]2CCCN2C(=O)[C@H](CCc2ccc(C(F)(F)F)c(Cl)c2)NC(=O)CN(C)C(=O)[C@H](Cc2cccc(C(F)(F)F)c2)N(C)C(=O)CN(C)C(=O)CN(C)C1=O [Compound 1575] (cyclo([Ac5c][NMeV][d(β3hA)][NMeL]I[Sar][Sar][NMePhe(3-CF3)][Sar][hPhe(3-Cl-4-CF3)]P))	45 nM
CC[C@H](C)[C@@H]1NC(=O)[C@H](CC(C)C)N(C)C(=O)C[C@@H](C(=O)N2CCCCC2)N(C)C(=O)[C@H](C(C)C)N(C)C(=O)C2(CCCC2)NC(=O)[C@@H]2CCCN2C(=O)[C@H](CCc2ccc(C(F)(F)F)c(Cl)c2)NC(=O)CN(C)C(=O)[C@H](CC2CCCCC2)N(C)C(=O)[C@@H]2CCN2C(=O)[C@H](CCC(C)C)N(C)C1=O [Compound 1577] ([NMeL]I[NMehLeu][Aze][NMeCha][Sar][hPhe(3-Cl-4-CF3)]P[Ac5c][NMeV][NMeD]-Piperidide; lactam N-11)	50 nM
CC[C@H](C)[C@@H]1NC(=O)[C@H](C)N(C)C(=O)C[C@@H](C(=O)N2CCCCC2)N(C)C(=O)[C@H](C(C)C)N(C)C(=O)C2(CCCC2)NC(=O)[C@@H]2CCCN2C(=O)[C@H](CCc2ccc(C(F)(F)F)c(Cl)c2)NC(=O)CN(C)C(=O)[C@H](CC2CCCCC2)N(C)C(=O)[C@@H]2CCN2C(=O)[C@H](CC2CCCCC2)N(C)C1=O [Compound 1580] ([NMeA]I[NMeCha][Aze][NMeCha][Sar][hPhe(3-Cl-4-CF3)]P[Ac5c][NMeV][NMeD]-Piperidide; lactam N-11)	11 nM
CC[C@H](C)[C@@H]1NC(=O)[C@H](CC(C)C)N(C)C(=O)C[C@@H](C)NC(=O)[C@H](C(C)C)N(C)C(=O)C2(CCCC2)NC(=O)[C@@H]2CCCN2C(=O)[C@H](CCc2ccc(C(F)(F)F)c(Cl)c2)NC(=O)CN(C)C(=O)[C@H](CC2CCCCC2)N(C)C(=O)[C@@H]2CCN2C(=O)[C@H](CC2CCCCC2)N(C)C1=O [Compound 1581] (cyclo([Ac5c][NMeV][d(β3hA)][NMeL]I[NMeCha][Aze][NMeCha][Sar][hPhe(3-Cl-4-CF3)]P))	230 nM
CC[C@H](C)[C@@H]1NC(=O)[C@H](CC(C)C)N(C)C(=O)C[C@@H](C)NC(=O)[C@H](C(C)C)N(C)C(=O)C2(CCCC2)NC(=O)[C@@H]2CCCN2C(=O)[C@H](CCc2ccc(C(F)(F)F)c(Cl)c2)NC(=O)CN(C)C(=O)[C@H](COc2ccccc2Cl)N(C)C(=O)CN(C)C(=O)CN(C)C1=O [Compound 1582]	35 nM
CC[C@H](C)[C@@H]1NC(=O)[C@H](CC(C)C)N(C)C(=O)C[C@@H](C)NC(=O)[C@H](C(C)C)N(C)C(=O)C2(CCCC2)NC(=O)[C@@H]2CCCN2C(=O)[C@H](CCc2ccc(C(F)(F)F)c(Cl)c2)NC(=O)CN(C)C(=O)[C@H](Cc2ccccc2F)N(C)C(=O)CN(C)C(=O)CN(C)C1=O [Compound 1585] (cyclo([Ac5c][NMeV][d(β3hA)][NMeL]I[Sar][Sar][NMePhe(2-F)][Sar][hPhe(3-Cl-4-CF3)]P))	43 nM
CC[C@H](C)[C@@H]1NC(=O)[C@H](CC(C)C)N(C)C(=O)C[C@@H](C)NC(=O)[C@H](C(C)C)N(C)C(=O)C2(CCCC2)NC(=O)[C@@H]2CCCN2C(=O)[C@H](CCc2ccc(C(F)(F)F)c(Cl)c2)NC(=O)CN(C)C(=O)[C@H](Cc2cccc(Br)c2)N(C)C(=O)CN(C)C(=O)CN(C)C1=O [Compound 1587] (cyclo([Ac5c][NMeV][d(β3hA)][NMeL]I[Sar][Sar][NMePhe(3-Br)][Sar][hPhe(3-Cl-4-CF3)]P))	31 nM
CC[C@H](C)[C@@H]1NC(=O)[C@H](CC(C)C)N(C)C(=O)C[C@@H](C)NC(=O)[C@H](C(C)C)N(C)C(=O)C2(CCCC2)NC(=O)[C@@H]2CCCN2C(=O)[C@H](CCc2ccc(C(F)(F)F)c(Cl)c2)NC(=O)CN(C)C(=O)[C@H](Cc2ccccc2Cl)N(C)C(=O)CN(C)C(=O)CN(C)C1=O [Compound 1591] (cyclo([Ac5c][NMeV][d(β3hA)][NMeL]I[Sar][Sar][NMePhe(2-Cl)][Sar][hPhe(3-Cl-4-CF3)]P))	97 nM
CC[C@H](C)[C@@H]1NC(=O)[C@H](C)N(C)C(=O)C[C@@H](C(=O)N2CCCCC2)N(C)C(=O)[C@H](C(C)C)N(C)C(=O)C2(CCCC2)NC(=O)[C@@H]2CCCN2C(=O)[C@H](CCc2ccc(C(F)(F)F)c(Cl)c2)NC(=O)CN(C)C(=O)[C@H](CC2CCCCC2)N(C)C(=O)[C@@H]2CCN2C(=O)[C@H](CCC(C)C)N(C)C1=O [Compound 1595] ([NMeA]I[NMehLeu][Aze][NMeCha][Sar][hPhe(3-Cl-4-CF3)]P[Ac5c][NMeV][NMeD]-Piperidide; lactam N-11)	15 nM
CC[C@H](C)[C@@H]1NC(=O)[C@H](CC(C)C)N(C)C(=O)C[C@@H](C(=O)N2CCCCC2)N(C)C(=O)[C@H](C(C)C)N(C)C(=O)C2(CCCC2)NC(=O)[C@@H]2CCCN2C(=O)[C@H](CCc2ccc(C(F)(F)F)c(Cl)c2)NC(=O)CN(C)C(=O)[C@H](CC2CCCCC2)N(C)C(=O)[C@@H]2CCN2C(=O)[C@H](C2CCCCC2)N(C)C1=O [Compound 1600] ([NMeL]I[NMeChg][Aze][NMeCha][Sar][hPhe(3-Cl-4-CF3)]P[Ac5c][NMeV][NMeD]-Piperidide; lactam N-11)	310 nM
CC[C@H](C)[C@@H]1NC(=O)[C@H](CC(C)C)N(C)C(=O)C[C@@H](C)NC(=O)[C@H](C(C)C)N(C)C(=O)C2(CCCC2)NC(=O)[C@@H]2CCCN2C(=O)[C@H](CCc2ccc(C(F)(F)F)c(Cl)c2)NC(=O)CN(C)C(=O)[C@H](Cc2ccccc2)N(C)C(=O)CN(C)C(=O)CN(C)C1=O [Compound 1606] (cyclo([Ac5c][NMeV][d(β3hA)][NMeL]I[Sar][Sar][NMeF][Sar][hPhe(3-Cl-4-CF3)]P))	15 nM
CC[C@H](C)[C@@H]1NC(=O)[C@H](CC(C)C)N(C)C(=O)C[C@@H](C)NC(=O)[C@H](C(C)C)N(C)C(=O)C2(CCCC2)NC(=O)[C@@H]2CCCN2C(=O)[C@H](CCc2ccc(C(F)(F)F)c(Cl)c2)NC(=O)CN(C)C(=O)[C@H](CC2CCCCC2)N(C)C(=O)[C@@H]2CCN2C(=O)[C@H](CC2CC2)N(C)C1=O [Compound 1612] (cyclo([Ac5c][NMeV][d(β3hA)][NMeL]I[NMeAla(cPr)][Aze][NMeCha][Sar][hPhe(3-Cl-4-CF3)]P))	390 nM
CC[C@H](C)[C@@H]1NC(=O)[C@H](CC(C)C)N(C)C(=O)C[C@@H](C)NC(=O)[C@H](C(C)C)N(C)C(=O)C2(CCCC2)NC(=O)[C@@H]2CCCN2C(=O)[C@H](CCc2ccc(C(F)(F)F)c(Cl)c2)NC(=O)CN(C)C(=O)[C@H](Cc2ccccc2C(F)(F)F)N(C)C(=O)CN(C)C(=O)CN(C)C1=O [Compound 1613] (cyclo([Ac5c][NMeV][d(β3hA)][NMeL]I[Sar][Sar][NMePhe(2-CF3)][Sar][hPhe(3-Cl-4-CF3)]P))	110 nM
CC[C@H](C)[C@@H]1NC(=O)[C@H](CC(C)C)N(C)C(=O)C[C@@H](C)NC(=O)[C@H](C(C)C)N(C)C(=O)C2(CCCC2)NC(=O)[C@@H]2CCCN2C(=O)[C@H](CCc2ccc(C(F)(F)F)c(Cl)c2)NC(=O)CN(C)C(=O)[C@H](Cc2ccccc2C)N(C)C(=O)CN(C)C(=O)CN(C)C1=O [Compound 1614] (cyclo([Ac5c][NMeV][d(β3hA)][NMeL]I[Sar][Sar][NMePhe(2-Me)][Sar][hPhe(3-Cl-4-CF3)]P))	51 nM
CC[C@H](C)[C@@H]1NC(=O)[C@H](CC(C)C)N(C)C(=O)C[C@@H](C)NC(=O)[C@H](C(C)C)N(C)C(=O)C2(CCCC2)NC(=O)[C@@H]2CCCN2C(=O)[C@H](CCc2ccc(C(F)(F)F)c(Cl)c2)NC(=O)CN(C)C(=O)[C@H](CC2CCCCC2)N(C)C(=O)[C@@H]2CCN2C(=O)[C@H](CC2CCCC2)N(C)C1=O [Compound 1618] (cyclo([Ac5c][NMeV][d(β3hA)][NMeL]I[NMeAla(cPent)][Aze][NMeCha][Sar][hPhe(3-Cl-4-CF3)]P))	290 nM
CC[C@H](C)[C@@H]1NC(=O)[C@H](C)N(C)C(=O)C[C@@H](C(=O)N2CCCCC2)N(C)C(=O)[C@H](C(C)C)N(C)C(=O)C2(CCCC2)NC(=O)[C@@H]2CCCN2C(=O)[C@H](CCc2ccc(C(F)(F)F)c(Cl)c2)NC(=O)CN(C)C(=O)[C@H](CC2CCCCC2)N(C)C(=O)[C@@H]2CCN2C(=O)[C@H](C2CCCCC2)N(C)C1=O [Compound 1622] ([NMeA]I[NMeChg][Aze][NMeCha][Sar][hPhe(3-Cl-4-CF3)]P[Ac5c][NMeV][NMeD]-Piperidide; lactam N-11)	130 nM
